Assay results from US9403830B2, “Inhibitors of leukotriene production” (Boehringer Ingelheim International GmbH, priority 2012, dated 2016).

Legend:
[1] = target: T1, human LTA4 hydrolase (Homo sapiens, UniProt P09960); assay: LTA4H Enzyme assay (peptidase, Arg-AMC cleavage); format: biochemical; settings: LTA4H enzyme 1 nM, Arg-AMC substrate 50 μM, room temperature 1 h, fluorescence 380/460 nm
T1 sequence (P09960 1-611): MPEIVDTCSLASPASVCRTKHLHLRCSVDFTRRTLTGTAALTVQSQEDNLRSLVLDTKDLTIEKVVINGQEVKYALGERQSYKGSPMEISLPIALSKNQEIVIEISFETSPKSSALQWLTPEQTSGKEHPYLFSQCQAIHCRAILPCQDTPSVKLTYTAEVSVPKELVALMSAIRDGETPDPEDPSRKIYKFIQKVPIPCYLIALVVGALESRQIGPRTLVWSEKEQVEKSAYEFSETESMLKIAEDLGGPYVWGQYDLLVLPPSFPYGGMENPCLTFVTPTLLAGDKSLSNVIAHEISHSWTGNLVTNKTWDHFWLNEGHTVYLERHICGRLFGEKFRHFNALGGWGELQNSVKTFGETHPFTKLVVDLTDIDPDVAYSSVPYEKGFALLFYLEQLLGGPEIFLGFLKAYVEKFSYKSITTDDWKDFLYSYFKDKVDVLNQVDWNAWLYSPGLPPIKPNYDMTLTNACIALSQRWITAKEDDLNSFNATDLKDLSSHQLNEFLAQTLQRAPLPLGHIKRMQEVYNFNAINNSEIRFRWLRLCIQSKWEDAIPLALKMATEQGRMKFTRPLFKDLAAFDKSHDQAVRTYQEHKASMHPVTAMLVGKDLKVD
Procedure, shortened: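 Human LTA4H (1 nM final) incubated with compound and Arg-AMC (50 μM final) in 50 mM Tris-HCl pH 7.5, 100 mM KCl, 0.5% BSA, 1 h at room temperature. Product read as AMC fluorescence (ex 380/em 460 nm); IC50 reported.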

[2] = system: LTB4 synthesis in human whole blood; assay: human whole blood (HWB) assay, inhibition of LTB4 production; format: cell-based; settings: heparinized human whole blood, calcimycin 20 μM stimulation, plasma LTB4
Procedure, shortened: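 Heparinized human whole blood preincubated with compound 15 min at 37 °C, then stimulated with 20 μM (final) calcimycin for 30 min at 37 °C. Plasma LTB4 measured by antibody-based HTRF; IC50 reported.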

Row | Structure (SMILES) | IC50 [1] [nM] | IC50 [2] [nM]
1 | O=C(c1cn2ccc(Oc3ccc(-c4ccn[nH]4)cc3)cc2n1)N1CCOCC1 [Example 258, Morpholin-4-yl-{7-[4-(2H-pyrazol-3-yl)-phenoxy]-imidazo[1,2-a]pyridin-2-yl}-methanone] | 10 | 2000
2 | CN(Cc1nc2cc(Oc3ccc(-c4ccn[nH]4)cc3)ccc2[nH]1)CC1CCCOC1 (stereo not drawn) [Example 92, Methyl-{5-[4-(2H-pyrazol-3-yl)-phenoxy]-1H-benzoimidazol-2-ylmethyl}-(tetrahydro-pyran-3-ylmethyl)-amine] | 0.11 | 140
3 | COCC(=O)NC1CCN(CC2Cc3ccc(Oc4ccc(-c5ccn[nH]5)cc4)cc3O2)CC1 (stereo not drawn) [Example 170, 2-Methoxy-N-(1-{6-[4-(2H-pyrazol-3-yl)-phenoxy]-2,3-dihydro-benzofuran-2-ylmethyl}-piperidin-4-yl)-acetamide] | 0.35 | 120
4 | C[C@H]1CN(Cc2nc3ccc(Cc4ccc(-c5ccn[nH]5)cc4)cc3[nH]2)C[C@H](C)O1 [Example 56, 2-((2S,6S)-2,6-Dimethyl-morpholin-4-ylmethyl)-6-[4-(2H-pyrazol-3-yl)-benzyl]-1H-benzoimidazole] | 0.18 | 110
5 | c1cc(-c2ccc(Oc3ccn4cc(CN5CCOCC5)nc4c3)cc2)[nH]n1 [Example 257, 2-Morpholin-4-ylmethyl-7-[4-(2H-pyrazol-3-yl)-phenoxy]-imidazo[1,2-a]pyridine] | 2.5 | 650
6 | OCC1CCCCN1Cc1nc2cc(Oc3ccc(-c4ccn[nH]4)cc3)ccc2[nH]1 (stereo not drawn) [Example 195, (1-{5-[4-(2H-Pyrazol-3-yl)-phenoxy]-1H-benzoimidazol-2-ylmethyl}-piperidin-2-yl)-methanol] | 0.14 | 180
7 | CN(Cc1nc2cc(Oc3ccc(-c4ccn[nH]4)cc3)ccc2[nH]1)C[C@H]1CCCO1 [Example 81] | 0.27 | 100
8 | COC[C@H]1CCCN1Cc1nc2cc(Oc3ccc(-c4ccn[nH]4)cc3)ccc2[nH]1 [Example 167, 2-((R)-2-Methoxymethyl-pyrrolidin-1-ylmethyl)-5-[4-(2H-pyrazol-3-yl)-phenoxy]-1H-benzoimidazole] | 0.14 | 120
9 | N#CCC1CCN(Cc2ccc3cc(Oc4ccc(-c5ccn[nH]5)cn4)ccc3n2)CC1 [Example 96, (1-{6-[5-(2H-Pyrazol-3-yl)-pyridin-2-yloxy]-quinolin-2-ylmethyl}-piperidin-4-yl)-acetonitrile] | 0.79 | 160
10 | c1cc(-c2ccc(Oc3ccc4[nH]c(CN5CCSCC5)nc4c3)cc2)[nH]n1 [Example 98, 5-[4-(2H-Pyrazol-3-yl)-phenoxy]-2-thiomorpholin-4-ylmethyl-1H-benzoimidazole] | 0.18 | 160
11 | COC[C@H](C)N(C)Cc1nc2cc(Oc3ccc(-c4ccn[nH]4)cc3)ccc2[nH]1 [Example 82, ((S)-2-Methoxy-1-methyl-ethyl)-methyl-{5-[4-(2H-pyrazol-3-yl)-phenoxy]-1H-benzoimidazol-2-ylmethyl}-amine] | 0.077 | 110
12 | CC1CCN(Cc2nc3cc(Oc4ccc(-c5ccn[nH]5)cc4)ccc3[nH]2)CC1 [Example 153, 2-(4-Methyl-piperidin-1-ylmethyl)-5-[4-(2H-pyrazol-3-yl)-phenoxy]-1H-benzoimidazole] | 0.17 | 89
13 | COC1CCN(Cc2nc3cc(Oc4ccc(-c5ccn[nH]5)cc4)ccc3[nH]2)CC1 [Example 228, 2-(4-Methoxy-piperidin-1-ylmethyl)-5-[4-(2H-pyrazol-3-yl)-phenoxy]-1H-benzoimidazole] | 0.16 | 180
14 | c1ccc(OC2CCN(Cc3ccc4cc(Oc5ccc(-c6ccn[nH]6)cn5)ccc4n3)CC2)nc1 [Example 215, 6-[5-(2H-Pyrazol-3-yl)-pyridin-2-yloxy]-2-[4-(pyridin-2-yloxy)-piperidin-1-ylmethyl]-quinoline] | 5 | 680

Continued by falling IC50 [1], values first:

Row | IC50 [1] [nM] | IC50 [2] [nM] | Structure (SMILES)
15 | 8.1 | 2200 | NC(=O)[C@@H](NCc1ccc2cc(Oc3ccc(-c4ccn[nH]4)cn3)ccc2n1)c1ccccc1 [Example 51, (S)-2-Phenyl-2-({6-[5-(2H-pyrazol-3-yl)-pyridin-2-yloxy]-quinolin-2-ylmethyl}-amino)-acetamide]
16 | 3.5 | 980 | CC(=O)N1CCN(Cc2cnc3cc(Oc4ccc(-c5ccn[nH]5)cc4)ccc3n2)CC1 [Example 241, 1-(4-{6-[4-(2H-Pyrazol-3-yl)-phenoxy]-quinoxalin-2-ylmethyl}-piperazin-1-yl)-ethanone]
17 | 2 | 280 | CS(=O)(=O)CC(=O)N1CCN(Cc2ccc3cc(Oc4ccc(-c5ccn[nH]5)cn4)ccc3n2)CC1 [Example 39, 2-Methanesulfonyl-1-(4-{6-[5-(2H-pyrazol-3-yl)-pyridin-2-yloxy]-quinolin-2-ylmethyl}-piperazin-1-yl)-ethanone]
18 | 1.2 | 220 | CO[C@H]1CCN(Cc2ccc3cc(Oc4ccc(-c5ccn[nH]5)cn4)ccc3n2)C1 [Example 208, 2-((S)-3-Methoxy-pyrrolidin-1-ylmethyl)-6-[5-(2H-pyrazol-3-yl)-pyridin-2-yloxy]-quinoline]
19 | 1.2 | 250 | CC(=O)N1CCN(Cc2coc3cc(Oc4ccc(-c5ccn[nH]5)cn4)ccc23)CC1 [Example 149, 1-(4-{6-[5-(2H-Pyrazol-3-yl)-pyridin-2-yloxy]-benzofuran-3-ylmethyl}-piperazin-1-yl)-ethanone]
20 | 0.95 | 580 | CC(=O)NC1CCN(CCCn2cc3cc(Oc4ccc(-c5ccn[nH]5)cc4)ccc3n2)CC1 [Example 116, N-[1-(3-{5-[4-(2H-Pyrazol-3-yl)-phenoxy]-indazol-2-yl}-propyl)-piperidin-4-yl]-acetamide]
21 | 0.75 | 500 | c1cc(-c2ccc(Oc3ccc4nc(CN5CCOCC5)oc4c3)cc2)[nH]n1 [Example 114, 2-morpholin-4-ylmethyl-6-[4-(2H-pyrazol-3-yl)-phenoxy]-benzoxazole]
22 | 0.58 | 150 | CC(=O)N1CCN(CCn2cc3cc(Oc4ccc(-c5ccn[nH]5)cc4)ccc3n2)CC1 [Example 93, 1-[4-(2-{5-[4-(2H-Pyrazol-3-yl)-phenoxy]-indazol-2-yl}-ethyl)-piperazin-1-yl]-ethanone]
23 | 0.54 | 190 | OC1CCN(Cc2ccc3cc(Oc4ccc(-c5ccn[nH]5)cn4)ccc3c2)CC1 [Example 4, 1-{6-[5-(2H-Pyrazol-3-yl)-pyridin-2-yloxy]-naphthalen-2-ylmethyl}-piperidin-4-ol]
24 | 0.47 | 300 | CC(C)(O)CNC(=O)[C@H]1[C@@H]2CN(Cc3ccc4cc(Oc5ccc(-c6ccn[nH]6)cn5)ccc4n3)C[C@@H]21 [Example 40, (1α,5α,6α)-3-{6-[5-(2H-Pyrazol-3-yl)-pyridin-2-yloxy]-quinolin-2-ylmethyl}-3-aza-bicyclo[3.1.0]hexane-6-carboxylic acid (2-hydroxy-2-methyl-propyl)-amide]
25 | 0.4 | 310 | COC(=O)c1ccc(C2CCN(Cc3nc4cc(Oc5ccc(-c6ccn[nH]6)cc5)ccc4[nH]3)CC2)cc1 [Example 151, 4-(1-{5-[4-(2H-Pyrazol-3-yl)-phenoxy]-1H-benzoimidazol-2-ylmethyl}-piperidin-4-yl)-benzoic acid methyl ester]
26 | 0.31 | 150 | O=C(C1CCN(CC2Cc3ccc(Oc4ccc(-c5ccn[nH]5)cc4)cc3O2)CC1)N1CCOCC1 (stereo not drawn) [Example 187, Morpholin-4-yl-(1-{6-[4-(2H-pyrazol-3-yl)-phenoxy]-2,3-dihydro-benzofuran-2-ylmethyl}-piperidin-4-yl)-methanone]
27 | 0.2 | 150 | CN(Cc1nc2cc(Oc3ccc(-c4ccn[nH]4)cc3)ccc2[nH]1)C1CC1 [Example 179, Cyclopropyl-methyl-{5-[4-(2H-pyrazol-3-yl)-phenoxy]-1H-benzoimidazol-2-ylmethyl}-amine]
28 | 0.18 | 95 | CCN(CCOC)Cc1nc2cc(Oc3ccc(-c4ccn[nH]4)cc3)ccc2[nH]1 [Example 155, Ethyl-(2-methoxy-ethyl)-{5-[4-(2H-pyrazol-3-yl)-phenoxy]-1H-benzoimidazol-2-ylmethyl}-amine]
29 | 0.17 | 220 | c1cc(-c2ccc(Oc3ccc4[nH]c(C[C@@H]5CCCN5)nc4c3)cc2)[nH]n1 [Example 207, 5-[4-(2H-Pyrazol-3-yl)-phenoxy]-2-(S)-1-pyrrolidin-2-ylmethyl-1H-benzoimidazole]
30 | 0.15 | 180 | Cc1noc(C2CCN(Cc3nc4cc(Oc5ccc(-c6ccn[nH]6)cc5)ccc4[nH]3)CC2)n1 [Example 65, 2-[4-(3-Methyl-[1,2,4]oxadiazol-5-yl)-piperidin-1-ylmethyl]-5-[4-(2H-pyrazol-3-yl)-phenoxy]-1H-benzoimidazole]
